From patent publication US9573975B2, “Melanoma antigen peptide and uses thereof” (INSERM (INSTITUT NATIONAL DE LA SANTE ET DE LA RECHERCHE …, priority 2012, dated 2017)

Columns and labels:
[1] = test system: CD4 T cells in PBMC from healthy donors; experiment: PBMC from healthy donors stimulated with MELOE-1, restimulated with overlapping peptides, CD4/TNF-α staining; type: cell-based, human; conditions: for healthy donors in whom CD4 responses against the region were detected: seven healthy donors, TNFα production
Experimental: FIG. 1: (A) Percentages of TNF-α producing CD4 T cells among positive microcultures. Fourteen days after PBMC stimulation with MELOE-1 whole polypeptide (2-46), microcultures were re-stimulated with each indicated peptide during 5 hours. TNF-α production was then assessed by a double labeling TNF-α-CD4. Results were analyzed with a non-parametric test (Kruskal-Wallis) followed by a Dunns post-test. (B) Frequency of microcultures containing CD4 T cells specific for MELOE-1 peptides (assessed by TNF-α intracellular staining after re-stimulation with the 4 indicated peptides). 624 microcultures (from 7 healthy donors) were analyzed by a contingency table followed by a Fisher exact test.
PBMC from healthy donors were stimulated with 10 μM of MELOE-1. After 14 days, the presence of CD4 T cells specific for the different regions of MELOE-1 was assessed by restimulating cells with MELOE-12-21, MELOE-111-30, MELOE-118-37 and MELOE-126-46 peptides, followed by CD4/TNF-α double staining and flow cytometry analysis. Between brackets is indicated the mean % of TNF-α producing CD4 T cells, in positive microcultures. NA: not available.
PBMC from healthy donors or melanoma patients (2·10^5 cells/well) were cultured for 14 days with 10 μM of MELOE-1 whole antigen (46 amino acids) in RPMI medium supplemented with 8% HS, 50 IU/ml of rIL-2 (Chiron, France) and L-Glutamin, in 96-well multiplates. Micro cultures were then restimulated individually with each overlapping peptide (MELOE-12-21, MELOE-111-30, MELOE-118-37, MELOE-126-46 or MELOE-122-46 for melanoma patients) in the presence of 10 μg/mL brefeldin A for 5 hours and the percentage of CD4^+ specific T cells was assessed by TNF-α, IFN-γ or IL-4 intracellular staining A negative control without peptide was included in all experiments.
(§1) Lymphocytes were stimulated for 5 hours in the presence of brefeldin A (10 μg/mL) either with peptide alone (10 μM) in an autopresentation assay or with B-EBV or HLA-class II expressing melanoma cells pulsed 2 hours with the cognate peptide, at a ratio 1:2. In some experiments, blocking mAb against HLA-DP (clone B7.21 from Dr Charron, UMR940, Paris), HLA-DQ (clone SPVL3, Beckman Coulter) or HLA-DR (clone L243, BD Biosciences) were added at a concentration of 12.5 μg/ml. Cells were then stained with APC-conjugated anti-CD4 mAb, fixed with 4% paraformaldehyde, labeled with PE-conjugated anti-cytokine mAb and analyzed by flow cytometry.
Our purpose was to look for the existence of class II helper epitopes all along MELOE-1 sequence (SEQ ID NO: 20), in order to document the immunogenicity of the different regions of this melanoma antigen. We stimulated 2·10^7 PBMC from seven healthy donors with MELOE-1 whole antigen and tested, after a 14-day culture period the presence of CD4 T cells specific for each region of the protein. Microcultures were screened for TNFα production by CD4+ T cells, after restimulation with four MELOE-1 derived overlapping peptides (Table I), in an autopresentation assay. […] On the contrary, the central region 18-37, containing an already described DR11-restricted epitope (24-37) located just at the end of this 20-mer peptide (Rogel et al., 2011), induced specific responses in microcultures deriving from only 2/7 donors (HD9 and HD17, both expressing the DR11 element). In these two donors, we detected 6 and 7% of positive microcultures, containing between 0.6 to 3.7% of TNFα producing CD4 T cells.

[2] = test system: MELOE-1 specific T cell clones; experiment: HLA restriction of MELOE-1 specific T cell clones (anti-HLA blocking antibodies, HLA-matched B-EBV cell lines); type: cell-based, human
Experimental: FIG. 3: HLA-restricting element of MELOE-1 specific T cell clones and reactivity against HLA-matched melanoma cell lines. The HLA restriction of MELOE-1 specific T cell clones was first assessed using anti-HLA blocking antibodies (upper panel). T cell clones were stimulated for 5 hours in the presence of brefeldin A (10 μg/mL) either with peptide alone (10 μM) in an autopresentation assay and in presence or not of blocking antibodies at a concentration of 12.5 μg/mL. HLA restriction was confirmed with HLA-matched B-EBV cell lines pulsed 2 hrs with the cognate peptide, at a ratio 1:2 (middle panel). Reactivity of each T cell clone against HLA-class II expressing melanoma cells was assessed, in presence or not of exogeneous peptide (lower panel). After 5 hours of stimulation, cells were then stained with APC-conjugated anti-CD4 mAb, fixed with 4% paraformaldehyde, labeled with PE-conjugated anti-TNF-α mAb and analyzed by flow cytometry.
as §1
In order to formally characterize the recognized epitopes, we derived CD4 T cell clones specific for each region of MELOE-1 by limiting dilution, from microcultures of healthy donors or melanoma patients, containing at least 0.5% of specific CD4 T cells. We succeeded to derive CD4 specific T cell clones from HD17, HD22, HD25 and Pt≠3 microcultures, which were reactive against MELOE-12-21 (HD22), MELOE-111-30 (HD17 and Pt≠3) and MELOE-126-46 (HD25). From each cloning experiment, we obtained between one and ten reactive CD4 T cell clones, that turned out to be the same clonotype after CDR3B sequencing (Table IV). A single CD4 T cell clone for each specificity was used for further experiments. The HLA-restriction was determined for each T cell clone, first by using HLA-class II blocking monoclonal antibodies (FIG. 3, upper panel), and further by testing the recognition of HLA-matched B-EBV cell lines loaded with each recognized long peptide (FIG. 3 middle panel). The two T cell clones named 9C12 and 4E2, derived from HD22 and HD25 and specific for MELOE-12-21 and MELOE-126-46 were restricted by the HLA-DQβ1*0202 and the DQβ1*0201 molecules respectively. […]

Sequence	positive microcultures ([1]; healthy donor HD28)	healthy donors in whom CD4 responses against the region were detected [1]	HLA-restricting element of the peptide-specific T cell clone ([2]; T cell clone 9C12 (from HD22))	mean % of TNF-α producing CD4 T cells, in positive microcultures ([1]; donor HD24)	mean % of TNF-α producing CD4 T cells, in positive microcultures ([1]; donor HD27)	frequency of positive microcultures versus the three other regions of MELOE-1 ([1]; healthy donors, Fisher exact test, p<0.0001)	HLA-restricting element of the peptide-specific T cell clone ([2]; T cell clone 1A5)	HLA-restricting element of the peptide-specific T cell clone ([2]; T cell clone 5F9)
SCVGYPDEATSREQFLPSEG (SCVGYPDEATSREQFLPSEC) [MELOE-12-21]	62%	6/7	HLA-DQβ1*0202					
TSREQFLPSEGAACPPWHPS [MELOE-111-30]		each tested donor		(2% ± 1.4)	(5% ± 3.4)	significantly higher	HLA-DRβ1*1101	HLA-DRβ1*0101
